Consider eight molecules from PubChem BioAssay (NCI).

Some test systems named below: CCRF-CEM leukemia; SNB-19 CNS; SK-MEL-5 melanoma; NCI/ADR-RES ovarian; SF-295 CNS; RPMI-8226 leukemia; SK-MEL-28 melanoma; UACC-257 melanoma; RXF 393 renal; UACC-62 melanoma.
Holding throughout (test): NCI anticancer screen, dose series, 48 h

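Results reflect a 48-hour exposure of cells in 96-well plates to compound at five concentrations. Abbreviation: GI50, concentration required for 50% inhibition of growth. Definition used: TGI = concentration required for complete inhibition of growth.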

Regarding `COc1ccc(-c2c(C#N)cnc(N)c2-c2nc3cc(C)c(C)cc3[nH]2)cc1`, the GI50 with CCRF-CEM leukemia is 25.6 µM; with SNB-19 CNS, 7.06 µM; in the test on SK-MEL-5 melanoma, 8.78 µM; with NCI/ADR-RES ovarian, 6.84 µM; in the test with SF-295 CNS it was 6.41 µM; with RPMI-8226 leukemia, 32.5 µM. Also, the GI50 in the test on SK-MEL-28 melanoma was 17.2 µM; with UACC-257 melanoma, 52 µM; in the test with RXF 393 renal it was 5.68 µM; with UACC-62 melanoma, 7.22 µM. For the same molecule, the TGI in the test on CCRF-CEM leukemia is above 100 µM; with SNB-19 CNS it was 57.1 µM; in the test on SK-MEL-5 melanoma, above 100 µM; in the test with NCI/ADR-RES ovarian it was above 100 µM; in the test on SF-295 CNS, 23.4 µM; in the test on RPMI-8226 leukemia, above 100 µM. The TGI in the test on SK-MEL-28 melanoma is above 100 µM; in the test with UACC-257 melanoma it was above 100 µM; in the test on RXF 393 renal, 20.4 µM; with UACC-62 melanoma it was above 100 µM.
For the molecule `COc1ccc2oc3c(ccc[n+]3C)c(=O)c2c1`, the TGI in the test on CCRF-CEM leukemia, with SNB-19 CNS, in the test on SK-MEL-5 melanoma, with NCI/ADR-RES ovarian, in the test with SF-295 CNS and in the test with SK-MEL-28 melanoma was above 100 µM throughout. Also, the TGI in the test with RXF 393 renal and in the test with UACC-62 melanoma was above 100 µM throughout.
Consider `CC(CNc1nc(Nc2ccc(Cl)c(Cl)c2)nc(C(Cl)(Cl)Cl)n1)N(C)C` (stereo not given), for which the GI50 was 1.71 µM in the test with SNB-19 CNS; 1.63 µM in the test with SK-MEL-5 melanoma; 1.85 µM in the test with RPMI-8226 leukemia; 1.83 µM with SK-MEL-28 melanoma; 1.75 µM in the test with UACC-257 melanoma; 1.52 µM with RXF 393 renal. Further, in the test on UACC-62 melanoma, the GI50 is 1.71 µM. Besides, the TGI in the test on SNB-19 CNS came to 3.18 µM; in the test on SK-MEL-5 melanoma, 2.98 µM; in the test on RPMI-8226 leukemia, 4.58 µM; in the test on SK-MEL-28 melanoma, 3.29 µM; with UACC-257 melanoma, 3.32 µM; with RXF 393 renal it was 2.88 µM. In the test on UACC-62 melanoma, the TGI worked out at 3.11 µM.
As for `COc1cc2c(cc1O)N=C[C@@H]1CCC(O)N1C2=O` (mixture of isomers), the TGI was 1.66 µM with CCRF-CEM leukemia; 147 µM with SNB-19 CNS; 1.83 µM in the test on SK-MEL-5 melanoma; 3.42 µM in the test with NCI/ADR-RES ovarian; 5.77 µM in the test on SF-295 CNS; 2.39 µM in the test on RPMI-8226 leukemia. For the same molecule, the TGI with SK-MEL-28 melanoma was 2.84 µM; in the test on UACC-257 melanoma it was 7.65 µM; with RXF 393 renal, 0.638 µM; in the test on UACC-62 melanoma it was 1.5 µM.
Regarding `CC(=O)Nc1nc(C)c(-c2cc3c(c(S(C)(=O)=O)c2)C(=O)N([C@@H](C)C2CC2)C3)s1`, the GI50 in the test on CCRF-CEM leukemia is 1.18 µM; in the test with SNB-19 CNS, 65.5 µM; in the test with SK-MEL-5 melanoma it was 18.8 µM; with NCI/ADR-RES ovarian, 53.6 µM; in the test with SF-295 CNS it was 31.6 µM; in the test on RPMI-8226 leukemia it was 17.6 µM. Moreover, the GI50 was 28.1 µM with SK-MEL-28 melanoma, 37.7 µM in the test with UACC-257 melanoma, 14.2 µM with RXF 393 renal and 34.8 µM with UACC-62 melanoma. Besides, the TGI with CCRF-CEM leukemia was above 100 µM; in the test on SNB-19 CNS, above 100 µM; in the test on SK-MEL-5 melanoma, 39.7 µM; in the test with NCI/ADR-RES ovarian it was above 100 µM; in the test on SF-295 CNS it was above 100 µM; in the test on RPMI-8226 leukemia, 52.9 µM. The TGI in the test on SK-MEL-28 melanoma was above 100 µM; in the test with UACC-257 melanoma, above 100 µM; in the test on RXF 393 renal it was 51.6 µM; in the test with UACC-62 melanoma, above 100 µM.
For the molecule `CC(=O)O[C@@H]1CN(S(=O)(=O)c2ccc(C)cc2)C[C@@H]1C1CCCCC1`, the TGI with CCRF-CEM leukemia is above 100 µM; in the test on SNB-19 CNS, above 100 µM; in the test on SK-MEL-5 melanoma, 45.8 µM; with NCI/ADR-RES ovarian, 53.3 µM; with SF-295 CNS, above 100 µM; in the test on RPMI-8226 leukemia, 67.7 µM. Moreover, the values for the TGI with SK-MEL-28 melanoma, in the test on UACC-257 melanoma and with UACC-62 melanoma were 34.3 µM, 35.7 µM and 33.4 µM, respectively.
Regarding `CCc1ncc(C(C)(O)c2ccccc2)n1Cc1ccccc1` (stereo not given), the TGI in the test on CCRF-CEM leukemia was above 100 µM; in the test with SNB-19 CNS it was above 100 µM; with SK-MEL-5 melanoma, 40.6 µM; with NCI/ADR-RES ovarian, above 100 µM; with SF-295 CNS it was above 100 µM; in the test with RPMI-8226 leukemia, above 100 µM. Further, the TGI in the test on SK-MEL-28 melanoma was above 100 µM; with UACC-257 melanoma it was above 100 µM; in the test with RXF 393 renal, above 100 µM; in the test on UACC-62 melanoma, 54.2 µM.
For `CC1CC(c2ccc([N+](=O)[O-])cc2)=Nc2ccccc2S1=O` (stereo not given), the TGI with CCRF-CEM leukemia amounted to 42.2 µM; in the test on SNB-19 CNS, 38.5 µM; with SK-MEL-5 melanoma, 37.1 µM; in the test with SF-295 CNS, 55.2 µM; with RPMI-8226 leukemia, 31.9 µM; with SK-MEL-28 melanoma, 43.6 µM. For the same molecule, the TGI in the test with UACC-257 melanoma was determined as 42.1 µM; in the test with RXF 393 renal, 23.6 µM; in the test with UACC-62 melanoma, 38.8 µM.
